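Here, GI50 denotes the concentration required for 50% inhibition of growth. TGI is the concentration that stops growth completely.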
Columns and labels:
Assay in all cases: inhibition of tumour cell growth, NCI panel, 384-well format
786-0 renal = tested on: 786-0 renal
BT-549 breast = tested on: BT-549 breast
DU-145 prostate = tested on: DU-145 prostate
EKVX NSCLC = tested on: EKVX NSCLC
HL-60(TB) leukemia = tested on: HL-60(TB) leukemia
HOP-92 NSCLC = tested on: HOP-92 NSCLC
MDA-MB-231 breast = tested on: MDA-MB-231 breast
NCI-H23 lung = tested on: NCI-H23 lung
NCI-H522 lung = tested on: NCI-H522 lung
OVCAR-3 ovarian = tested on: OVCAR-3 ovarian
PC-3 prostate = tested on: PC-3 prostate
SK-MEL-28 melanoma = tested on: SK-MEL-28 melanoma
SR leukemia = tested on: SR leukemia

Row | Compound | GI50 (786-0 renal) [µM] | TGI (786-0 renal) [µM] | GI50 (BT-549 breast) [µM] | TGI (BT-549 breast) [µM] | GI50 (DU-145 prostate) [µM] | TGI (DU-145 prostate) [µM] | GI50 (EKVX NSCLC) [µM] | TGI (EKVX NSCLC) [µM] | GI50 (HL-60(TB) leukemia) [µM] | TGI (HL-60(TB) leukemia) [µM] | GI50 (HOP-92 NSCLC) [µM] | TGI (HOP-92 NSCLC) [µM] | GI50 (MDA-MB-231 breast) [µM] | TGI (MDA-MB-231 breast) [µM] | GI50 (NCI-H23 lung) [µM] | TGI (NCI-H23 lung) [µM] | GI50 (NCI-H522 lung) [µM] | TGI (NCI-H522 lung) [µM] | GI50 (OVCAR-3 ovarian) [µM] | TGI (OVCAR-3 ovarian) [µM] | other results
1 | C[C@@H](Nc1nc(N[C@H](C)C(F)(F)F)nc(-c2cccc(Cl)n2)n1)C(F)(F)F | 33.2 | > 76.3 | 32.5 | > 70.3 | 34.1 | > 100 | > 100 | > 100 | > 85.3 | > 100 | 43 | > 100 | 27.9 | > 83.3 | > 49.9 | > 89.7 | > 100 | > 100 | 28.8 | > 100 | GI50 (PC-3 prostate): > 51.1 µM; TGI (PC-3 prostate): > 80.9 µM; GI50 (SK-MEL-28 melanoma): > 100 µM; TGI (SK-MEL-28 melanoma): > 100 µM; GI50 (SR leukemia): > 77.3 µM; TGI (SR leukemia): > 100 µM
2 | Cc1cc(F)c(C(=O)Nc2cccc(-c3nncn3C(C)C)n2)cc1-n1cnc(C2CC2)c1 | 15 | 40.4 | 11.2 | 23.6 | 6.87 | 27.8 | 5.8 | 22.1 | 6.26 | 18.3 | 17.7 | > 82.9 | 15.3 | > 85.9 | 4.62 | 16.8 | 3.31 | 13.7 | 14.7 | 41.1 | GI50 (PC-3 prostate): 15.5 µM; TGI (PC-3 prostate): 30.2 µM; GI50 (SK-MEL-28 melanoma): 17.8 µM; TGI (SK-MEL-28 melanoma): 35 µM; GI50 (SR leukemia): 3.62 µM; TGI (SR leukemia): 11.2 µM

— PubChem BioAssay (NCI)
